Where no end group is shown, it is not given here. The star is where a group is joined. Palmitoyl = CCCCCCCCCCCCCCCC(=O)*; Myristoyl = CCCCCCCCCCCCCC(=O)*
Key:
[1] = system: keratinocytes; experiment: Cytokine secretion in keratinocytes stimulated by LPS, TNFα or IL-17 (ELISA); format: cell-based, BALB/C mice; details: for cytokine secretion from LPS and TNFα activated keratinocytes: FIGS. 19 to 23; for cytokine secretion from IL-17A activated keratinocytes: FIGS. 24 to 27; for cytokine secretion in keratinocytes: stimulated by LPS, TNFα, or IL-17
Experimental: To determine their effects, keratinocytes were derived from newborn BALB/C mice skin. The cells were incubated for 5 days in 24 wells plate. Cells were then incubated with PBS−/− as control or stimulated by LPS, TNFα, or IL-17. PKCα inhibitors were added as indicated. Medium containing secreted cytokines was collected after 48 hr and analyzed using ELISA. FIG. 40 is a tabular summary of cytokine secretion.
PKCδactivators were also shown to have an anti-inflammatory effect on keratinocytes and splenocytes. Keratinocytes were derived from newborn BALB/C mice skin. The cells were incubated for 5 days in 24 wells plate. Cells were then incubated with PBS−/− as control or stimulated by LPS or TNFα. The PKCδ inhibitor DAP-1 (SEQ ID NO: 16) was added. Medium containing secreted cytokines was collected after 48 hr and analyzed using ELISA. FIG. 35 is a tabular summary showing cytokine secretion in splenocytes stimulated with LPS. […] Cytokine secretion in keratinocytes stimulated by TNFα: following stimulation with 35 ng/ml TNFα. And treatment with 10 μg/ml of DAP-1, the cytokine levels of IL-1α, G-CSF, MIP-2 and KC were reduced by 95%, 70%, 20% and 30# respectively.
PKCε inhibitors were also shown to have an anti-inflammatory effect on keratinocytes. Keratinocytes were derived from newborn BALB/C mice skin. The cells were incubated for 5 days in 24 wells plate. Cells were then incubated with PBS−/− as control or stimulated by LPS or TNFα. The PKCεinhibitors EPIP-1 (SEQ ID NO: 20), EPIP-2 (SEQ ID NO: 21), or EPIP-4 (SEQ ID NO: 23) were added. Medium containing secreted cytokines was collected after 48 hr and analyzed using ELISA. FIGS. 36-39 show the results for secretion of specific cytokines while Table 8 summarizes cytokine secretion for the various PKCε inhibitors: […]

[2] = system: splenocytes; experiment: Cytokine secretion in splenocytes stimulated with LPS or TNFα (ELISA); format: cell-based, B6 mice
Source text: Inhibitory effect on activated splenocytes: Splenocytes were derived from B6 mice. […] Medium containing secreted cytokines was collected after 48 hr and analyzed using ELISA.

[3] = system: keratinocytes; experiment: Keratinocyte differentiation markers (Filaggrin, Loricrin, Keratin 1); format: cell-based, C57BL/6J mice; details: concentration: EPIP1 and DAP1 1 μg/ml, 10 μg/ml, EPIP2 10 μg/ml
Experimental: Keratinocytes derived from C57BL/6J mice were incubated in medium containing Ca^2+ to induce keratinocytes differentiation. Cells were then incubated in the presence of […] (1 μg/ml). Cells were harvested, run on SDS PAGE gel and immunoblotted using anti-Filaggrin (Fil), anti Loricrin (Lor) and anti-Keratin 1 (K1) antibody.
(§1) FIGS. 7 and 8 presents a summary of expression data in keratinocytes utilizing various peptide PKCα inhibitors: MPDY-1 (SEQ ID NO: 21) as well as data for the peptide PKCα inhibitors AIP-1 (SEQ ID NO: 3), AIP-2 (SEQ ID NO: 20), AWOT-1 (SEQ ID NO: 5) and PPDY-1 (SEQ ID NO: 22). […] FIG. 8 presents a summary of expression data in keratinocytes for various peptide PKCα inhibitors.

[4] = system: keratinocytes; experiment: Keratinocyte proliferation in vitro (PCNA); format: cell-based, Balb/c mice; details: for Proliferation markers (PCNA): concentration not given
Experimental: Primary murine keratinocytes from 2 days old Balb/c mice were grown for 5 days to reach full confluence in 0.05 mM Ca^2+ MEM medium. HO/02/10 treatment (10^−6M and 10^−5M) was applied 6 hours prior to induction of differentiation. Cells were harvested, run on SDS PAGE gel and immunoblotted using anti-PCNA antibodies. In addition, C57Black mice, 8-10 weeks of age were subjected to full thickness wounding in the upper back area to induce epidermis remodeling and differentiation. Following the wounding, mice were treated daily with HO/02/10 (ranged 40-4000 mg/kg/day) for 7 days. At the termination point, mice were euthanized and upper back skin samples were fixed in 4% paraformaldehyde solution, following paraffin embedding and slide preparation. Skin samples were then subjected to immunohistochemical staining utilizing PCNA antibody. (n=18).
as §1

[5] = system: keratinocytes; experiment: Keratinocyte migration; format: cell-based; parameters: concentration or dose not given beside the values
[6] = Splenocytes, Induction: LPS (1 μg/ml) (given for DAP1 only), peptide (10 μg/ml)
[7] = Keratinocytes, Induction: TNFα (35 ng/ml), peptide (10 μg/ml)
[8] = TNFα 25 ng/ml, peptide 1 μg/ml, 48 hr
[9] = TNFα 25 ng/ml, peptide 10 μg/ml, 48 hr
[10] = LPS 1 [μg/ml], peptide [10 μg/ml], 48 hr
[11] = LPS 1 [μg/ml], peptide [1 g/ml], 48 hr
[12] = TNF [35 ng/ml], peptide [10 μg/ml], 48 hr
[13] = TNF [35 ng/ml], peptide [1 g/ml], 48 hr
[14] = keratinocytes, LPS (1 μg/ml) (EPIP4: printed 1 mg/ml), peptide concentration not given
[15] = keratinocytes, TNFa stim (35 ng/ml), 1 μg/ml of peptide (given for EPIP1, EPIP2, not for EPIP4), reduction printed with or without minus sign
[16] = keratinocytes, upon LPS and TNFa activation
[17] = keratinocytes, 35 ng/ml TNFα, 10 μg/ml of DAP-1

Myristoyl-Phe-Ala-Arg-Lys-Gly-Ala-Leu (Myristoyl-FARKGAL) [AIP-2]
cytokine secretion from LPS and TNFα activated keratinocytes [1]: decrease
cytokine secretion from IL-17A activated keratinocytes [1]: decrease
cytokine secretion in keratinocytes ([1]; 48 hr): effective in decreasing cytokine secretion

TLNPQWES [AIP-1]
cytokine secretion in keratinocytes ([1]; 48 hr): effective in decreasing cytokine secretion

FARKGALRQ [AWOT]
cytokine secretion from LPS and TNFα activated keratinocytes [1]: decrease
cytokine secretion from IL-17A activated keratinocytes [1]: decrease
cytokine secretion in keratinocytes ([1]; 48 hr): effective in decreasing cytokine secretion

Palmitoyl-Phe-Ala-Arg-Lys-Gly-Ala-Leu-Arg-Gln (Palmitoyl-FARKGALRQ) [PPDY-1]
cytokine secretion in keratinocytes ([1]; 48 hr): effective in decreasing cytokine secretion

HFEDWIDHFEDWID [DAP-3]
Reduces Chemokines: MIP2 ([2]; Splenocytes, DAP3 (10 μg/ml)): MIP2 (25%)
reduces proinflamatory cytokine: IL-1α [2, 6]: IL-1α (45%),
reduces systemic cytokine: G-SCF [2, 6]: G-SCF (25%),
Differentiation markers: granular differentiation [3]: induces
Reduces Chemokines: KC [1, 7]: KC (25%),
Reduces proinflamatory cytokine: IL-1a [1, 7]: (50%)
Reduces proinflamatory cytokine: IL-6 [1, 7]: (45%) and IL-1a
Reduces systemic cytokine G-SCF [1, 7]: SCF (25%),
Reduces systemic cytokine GM-CSF [1, 7]: SCF (25%),
Proliferation markers (PCNA) [4]: induces
Migration, Induces [5]: (200%)

PYIALNVD [EPIP-2]
IL-4 (% reduction in secretion) [2, 8]: 15%
IL-17 (% reduction in secretion) [2, 8]: 80%
IP-10 (% reduction in secretion) [2, 8]: 20%
G-CSF (% reduction in secretion) [2, 9]: 30%
IL-6 (% reduction in secretion) [2, 9]: 25%
IL-10 (% reduction in secretion) [2, 9]: 30%
IL-17 (% reduction in secretion) [2, 9]: 85%
IP-10 (% reduction in secretion) [2, 9]: 10%
Differentiation markers: granular differentiation [3]: Reduces granular
Differentiation markers: spainous differentiation [3]: Slightly induces
G-CSF secretion (change) [1, 10]: −75%
IL-6 secretion (change) [1, 10]: −55%
IP-10 secretion (change) [1, 10]: −40%
KC secretion (change) [1, 10]: −90%
G-CSF secretion (change) [1, 11]: −50%
IL-6 secretion (change) [1, 11]: −40%
IP-10 secretion (change) [1, 11]: −50%
KC secretion (change) [1, 11]: −90%
G-CSF secretion (change) [1, 12]: −100%
IL-6 secretion (change) [1, 12]: −95%
IP-10 secretion (change) [1, 12]: (−40%)
G-CSF secretion (change) [1, 13]: −100%
IL-6 secretion (change) [1, 13]: −95%
IP-10 secretion (change) [1, 13]: (−65%)
G-CSF secretion (change) [1, 14]: −50%
IL-6 secretion (change) [1, 14]: −40%
IP-10 secretion (change) [1, 14]: −50%
KC secretion (change) [1, 14]: −90%
Reduces Chemokines IP 10 [1, 15]: Chemokines IP 10 (65%)
Reduces proinflammatory cytokines IL-6 [1, 15]: (95%), systemic cytokines G-SCF
Proliferation markers ([4]; 1 μg/ml): Induces
Proliferation markers ([4]; 10 μg/ml): Reduce
Migration, Induces [5]: (200%)

EAVSLKPT [EPIP-1]
Differentiation markers: granular differentiation [3]: Reduces granular
Differentiation markers: spainous differentiation [3]: Reduces granular
G-CSF secretion (change) [1, 10]: −70%
IL-6 secretion (change) [1, 10]: −55%
IP-10 secretion (change) [1, 10]: −60%
KC secretion (change) [1, 10]: −100%
G-CSF secretion (change) [1, 12]: −85%
IL-6 secretion (change) [1, 12]: −95%
IP-10 secretion (change) [1, 12]: (−45%)
G-CSF secretion (change) [1, 14]: −70%
IL-6 secretion (change) [1, 14]: −55%
IP-10 secretion (change) [1, 14]: −60%
KC secretion (change) [1, 14]: −100%
Reduces Chemokines IP 10 [1, 15]: Chemokines IP 10 (45%)
Reduces proinflammatory cytokines IL-6 [1, 15]: 95%
Reduces systemic cytokines G-SCF [1, 15]: −85%
Proliferation markers (PCNA) [4]: Induces
Migration, Induces [5]: (200%)

Pro-Ala-Trp-His-Asp (PAWHD) [EPIP-3]
Differentiation markers: granular differentiation [3]: Reduces granular
cytokine secretion, comparison with MPDY-1 ([1]; keratinocytes, IL-17 activation): IL-17: similar effect to MPDY-1
pro-inflammatory cytokines, chemokines (effect) [1, 16]: Reduces pro-inflammatory cytokines,
pro-inflammatory cytokines, chemokines, comparison with MPDY-1 [1, 16]: chemokines, better than MPDY-1 upon
Proliferation markers (PCNA) [4]: Induces
Migration, Induces [5]: (200%)

MRAAEAAAAEPM [DAP-1]
Reduces Chemokine: KC [2, 6]: KC (32%), as
reduces proinflamatory cytokine: IL-1α [2, 6]: IL-1α (45%),
reduces systemic cytokine: G-SCF [2, 6]: (40%),
induces antiinflamatory cytokine: IL 10 ([2]; Splenocytes, Induction: LPS (1 μg/ml), DAP1 (1 μg/ml)): IL 10 (200%)
Reduces TNFa expression ([2]; Splenocytes, Induction: LPS (1 μg/ml), DAP1 (10 μg/ml)): expression (28%).
inflammatory cytokine secretion in splenocytes ([2]; stimulated with LPS): significantly decease
Differentiation markers: granular differentiation [3]: induces
Reduces Chemokines: KC [1, 7]: KC (32%), MIP2
Reduces Chemokines: MIP2 [1, 7]: (30%)
Reduces proinflamatory cytokine: IL-1a [1, 7]: (40%)
Reduces proinflamatory cytokine: IL-6 [1, 7]: (20%) and IL-1a
Reduces systemic cytokine GM-CSF [1, 7]: GM-CSF (50%)
cytokine level of G-CSF reduced by [1, 17]: 70%
cytokine level of IL-1α reduced by [1, 17]: 95%
cytokine level of KC reduced by [1, 17]: 30
cytokine level of MIP-2 reduced by [1, 17]: 20%
inflammatory cytokine secretion in keratinocytes ([1]; stimulated by LPS or TNFα): significantly decease
Proliferation markers (PCNA) [4]: Reduces
Migration, Induces [5]: (200%)

LEPEAAAAAAGK [EPIP-4]
G-CSF (% reduction in secretion) [2, 8]: 45%
IFN-γ (% reduction in secretion) [2, 8]: 25%
IL-1a (% reduction in secretion) [2, 8]: 10%
IL-6 (% reduction in secretion) [2, 8]: 15%
IL-10 (% reduction in secretion) [2, 8]: 30%
IL-17 (% reduction in secretion) [2, 8]: 85%
G-CSF (% reduction in secretion) [2, 9]: 20%
IFN-γ (% reduction in secretion) [2, 9]: 55%
IL-10 (% reduction in secretion) [2, 9]: 10%
IL-17 (% reduction in secretion) [2, 9]: 90%
IP-10 (% reduction in secretion) [2, 9]: 15%
Differentiation markers: granular differentiation [3]: No influence
Differentiation markers: spainous differentiation [3]: reduces spainous
G-CSF secretion (change) [1, 11]: −75%
IL-6 secretion (change) [1, 11]: −55%
IP-10 secretion (change) [1, 11]: −60%
KC secretion (change) [1, 11]: −100%
G-CSF secretion (change) [1, 13]: IL-6 (−100%), G-CSF (−100%), IP-10
IL-6 secretion (change) [1, 13]: IL-6 (−100%), G-CSF (−100%), IP-10
IP-10 secretion (change) [1, 13]: (−80%)
IL-6 secretion (change) [1, 14]: Reduces proinflammatory IL-6 (−55%),
IP-10 secretion (change) [1, 14]: −60%
KC secretion (change) [1, 14]: −100%
Reduces Chemokines IP 10 [1, 15]: Chemokines IP 10 (−80%)
Reduces proinflammatory cytokines IL-6 [1, 15]: proinflammatory cytokines IL-6(−100%),
Proliferation markers (PCNA) [4]: Induces
Migration, Induces [5]: (200%)

Myristoyl-Thr-Arg-Lys-Arg-Gln-Arg-Ala-Met-Arg-Arg-Arg-Val-His-Gln-Ile-Asn-Gly (Myristoyl-TRKRQRAMRRRVHQING) [MPE-1]
G-CSF (% reduction in secretion) [2, 8]: 40%
IL-6 (% reduction in secretion) [2, 8]: 25%
IL-17 (% reduction in secretion) [2, 8]: 90%
G-CSF (% reduction in secretion) [2, 9]: 15%
IL-17 (% reduction in secretion) [2, 9]: 90%
